Laboratory results from patent US9248119B2, “Modified release dosage forms of xanthine oxidoreductase inhibitor or xanthine oxidase inhibitors” (Takeda Pharmaceuticals U.S.A., Inc., priority 2010, dated 2016).
Like-named read-outs stand apart in the source and are kept apart here.

Legend:
[1] = tested on: uric acid; test: Pharmacodynamics in Phase 1 dose escalation study: uric acid levels; format: in vivo, human
Method: Samples were analyzed by high performance liquid chromatography.

[2] = target: xanthine oxidase (Homo sapiens, UniProt P47989)
xanthine oxidase, sequence (P47989 whole entry): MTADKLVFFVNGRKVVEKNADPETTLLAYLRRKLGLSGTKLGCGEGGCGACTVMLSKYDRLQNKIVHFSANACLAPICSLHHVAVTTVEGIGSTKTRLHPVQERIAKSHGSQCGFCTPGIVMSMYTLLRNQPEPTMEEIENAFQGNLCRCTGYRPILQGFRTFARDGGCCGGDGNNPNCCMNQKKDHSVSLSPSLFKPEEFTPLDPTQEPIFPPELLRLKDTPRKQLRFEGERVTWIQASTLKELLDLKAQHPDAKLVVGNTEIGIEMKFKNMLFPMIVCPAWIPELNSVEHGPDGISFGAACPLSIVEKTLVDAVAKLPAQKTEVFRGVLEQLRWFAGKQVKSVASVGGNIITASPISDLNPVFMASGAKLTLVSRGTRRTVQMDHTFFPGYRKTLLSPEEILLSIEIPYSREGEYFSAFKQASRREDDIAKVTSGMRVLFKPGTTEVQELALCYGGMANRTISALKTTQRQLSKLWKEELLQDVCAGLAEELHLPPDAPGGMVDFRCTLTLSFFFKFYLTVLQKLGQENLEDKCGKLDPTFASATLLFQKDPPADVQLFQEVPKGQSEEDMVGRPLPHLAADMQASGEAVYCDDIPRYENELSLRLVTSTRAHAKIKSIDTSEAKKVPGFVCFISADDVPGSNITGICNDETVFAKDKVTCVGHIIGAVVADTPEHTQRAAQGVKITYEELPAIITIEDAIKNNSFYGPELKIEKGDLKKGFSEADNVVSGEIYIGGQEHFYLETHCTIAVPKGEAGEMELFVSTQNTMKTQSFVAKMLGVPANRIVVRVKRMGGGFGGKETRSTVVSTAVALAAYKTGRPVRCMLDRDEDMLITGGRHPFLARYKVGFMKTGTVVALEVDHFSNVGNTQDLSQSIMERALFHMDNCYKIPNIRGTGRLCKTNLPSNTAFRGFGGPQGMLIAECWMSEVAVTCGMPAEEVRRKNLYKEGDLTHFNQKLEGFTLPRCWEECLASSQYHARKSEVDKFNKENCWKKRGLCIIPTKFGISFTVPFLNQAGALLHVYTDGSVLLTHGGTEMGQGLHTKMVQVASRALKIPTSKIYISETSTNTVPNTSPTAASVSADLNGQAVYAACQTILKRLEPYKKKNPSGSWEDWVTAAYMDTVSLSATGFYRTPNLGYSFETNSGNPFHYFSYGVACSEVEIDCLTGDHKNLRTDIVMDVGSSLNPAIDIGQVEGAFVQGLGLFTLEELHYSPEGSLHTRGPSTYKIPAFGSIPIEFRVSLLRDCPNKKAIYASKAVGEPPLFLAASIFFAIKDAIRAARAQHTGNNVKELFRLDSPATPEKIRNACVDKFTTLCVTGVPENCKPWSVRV

In the case of `Cc1nc(-c2ccc(OCC(C)C)c(C#N)c2)sc1C(=O)O` [Febuxostat, 2-[3-cyano-4-(2-methylpropoxy)phenyl]-4-methylthiazole-5-carboxylic acid], the “lowering uric acid levels” value ([1]; 30 mg twice daily compared with once daily 120 mg) is reported as “as effective”, the “serum uric acid concentrations” value ([1]; IR, once a day, as little as 10 mg, healthy subjects) is reported as “lowers concentrations of uric acid” and the “inhibition of uric acid levels” value ([1]; in vivo febuxostat concentrations at or above 100 ng/mL (0.1 μg/mL)) is reported as at least 80%. For the same compound, the “Percentage Inhibition of xanthine oxidase” value (shortened to “Percentage Inhibition”) ([2]; IR 10 mg QD, 8 hours post dose) was 43.6%, the “Percentage Inhibition” value ([2]; IR 10 mg QD, 12 hours post dose) was 27.3% and the “Percentage Inhibition” value ([2]; IR 10 mg QD, 16 hours post dose) was 0%. For the same compound, the “Percentage Inhibition” value ([2]; IR 10 mg QD, 24 hours post dose) was 0%, the “Percentage Inhibition” value ([2]; IR 20 mg QD, 8 hours post dose) was 55.9% and the “Percentage Inhibition” value ([2]; IR 20 mg QD, 12 hours post dose) was 54.0%. For the same compound, the “Percentage Inhibition” value ([2]; IR 20 mg QD, 16 hours post dose) was 42.8%, the “Percentage Inhibition” value ([2]; IR 20 mg QD, 24 hours post dose) was 0% and the “Percentage Inhibition” value ([2]; IR 30 mg QD, 8 hours post dose) was 62.3%. The “Percentage Inhibition” value ([2]; IR 30 mg QD, 12 hours post dose) was 52.5%, the “Percentage Inhibition” value ([2]; IR 30 mg QD, 16 hours post dose) was 37.1% and the “Percentage Inhibition” value ([2]; IR 30 mg QD, 24 hours post dose) was 35.9%. The “Percentage Inhibition” value ([2]; IR 40 mg QD, 8 hours post dose) was 69.8%, the “Percentage Inhibition” value ([2]; IR 40 mg QD, 12 hours post dose) was 55.9% and the “Percentage Inhibition” value ([2]; IR 40 mg QD, 16 hours post dose) was 43.3%. The “Percentage Inhibition” value ([2]; IR 40 mg QD, 24 hours post dose) was 36.2%, the “Percentage Inhibition” value ([2]; IR 50 mg QD, 8 hours post dose) was 77.9% and the “Percentage Inhibition” value ([2]; IR 50 mg QD, 12 hours post dose) was 64.9%. The “Percentage Inhibition” value ([2]; IR 50 mg QD, 16 hours post dose) was 49.1%, the “Percentage Inhibition” value ([2]; IR 50 mg QD, 24 hours post dose) was 38.5% and the “Percentage Inhibition” value ([2]; IR 70 mg QD, 8 hours post dose) was 81.2%. For the same compound, the “Percentage Inhibition” value ([2]; IR 70 mg QD, 12 hours post dose) was 66.3%, the “Percentage Inhibition” value ([2]; IR 70 mg QD, 16 hours post dose) was 56.0% and the “Percentage Inhibition” value ([2]; IR 70 mg QD, 24 hours post dose) was 35.3%. For the same compound, the “Percentage Inhibition” value ([2]; IR 90 mg QD, 8 hours post dose) was 85.6%, the “Percentage Inhibition” value ([2]; IR 90 mg QD, 12 hours post dose) was 77.7% and the “Percentage Inhibition” value ([2]; IR 90 mg QD, 16 hours post dose) was 68.1%. The “Percentage Inhibition” value ([2]; IR 90 mg QD, 24 hours post dose) was 50.3%, the “Percentage Inhibition” value ([2]; IR 120 mg QD, 8 hours post dose) was 89.0% and the “Percentage Inhibition” value ([2]; IR 120 mg QD, 12 hours post dose) was 82.6%. For the same compound, the “Percentage Inhibition” value ([2]; IR 120 mg QD, 16 hours post dose) was 75.8%, the “Percentage Inhibition” value ([2]; IR 120 mg QD, 24 hours post dose) was 60.5% and the “time for which at least 80% inhibition of xanthine oxidase is provided” value ([2]; IR 120 mg, Table 2) was at most 16 h. The “Percentage Inhibition” value ([2]; IR 160 mg QD, 8 hours post dose) was 93.9%, the “Percentage Inhibition” value ([2]; IR 160 mg QD, 12 hours post dose) was 90.9% and the “Percentage Inhibition” value ([2]; IR 160 mg QD, 16 hours post dose) was 81.4%. The “Percentage Inhibition” value ([2]; IR 160 mg QD, 24 hours post dose) was 67.6%, the “Percentage Inhibition” value ([2]; IR 180 mg QD, 8 hours post dose) was 94.7% and the “Percentage Inhibition” value ([2]; IR 180 mg QD, 12 hours post dose) was 91.7%. The “Percentage Inhibition” value ([2]; IR 180 mg QD, 16 hours post dose) was 81.5%, the “Percentage Inhibition” value ([2]; IR 180 mg QD, 24 hours post dose) was 68.4% and the “Percentage Inhibition” value ([2]; IR 240 mg QD, 8 hours post dose) was 95.7%. The “Percentage Inhibition” value ([2]; IR 240 mg QD, 12 hours post dose) was 91.4%, the “Percentage Inhibition” value ([2]; IR 240 mg QD, 16 hours post dose) was 86.5% and the “Percentage Inhibition” value ([2]; IR 240 mg QD, 24 hours post dose) was 72.4%.
